According to patent publication US10875874B2, “Ginkgolide B derivative and preparation method and use thereof” (Chengdu Baiyu Ginkgolide Pharmaceuticals Co., Ltd., priority 2015, dated 2020):
Marks after values point to notes of the source that are not given here.

Assays:
Type in all cases: in vivo, rat
[1] = Weekly food intake of SHR rats
Description: (§1) 2.1 Grouping and administration of animals: 112 SHR rats (the female and male SHR rats are half and half, and the female rats are not pregnant) with the body weight of 200-250 g are taken, the rats are enabled to adapt to a laboratory for a period of 5 d, blood pressure is measured once at a day to enable the rats to adapt to the environment and detect stimulation. Then, weighing and numbering are carried out, and the SHR rats are equally divided into 14 groups randomly (each group comprises 8 rats), i.e., an SHR rat model control group, a positive control group (captopril, 27 mg/kg), a BZ large-dose group (120 mg/kg/d), a BZ small-dose group (60 mg/kg/d), a BA large-dose group (120 mg/kg/d), a BA small-dose group (60 mg/kg/d), a BL large-dose group (120 mg/kg/d), a BL small-dose group (60 mg/kg/d), a BM large-dose group (120 mg/kg/d), a BM small-dose group (60 mg/kg/d), a BD large-dose group (120 mg/kg/d), a BD small-dose group (60 mg/kg/d), a GB large-dose group (120 mg/kg/d) and a GB small-dose group (60 mg/kg/d). In addition, 8 healthy Wistar rats are taken as a normal control group. Intragastric administration is performed on the rats of each drug group separately according to the above-mentioned doses by 1 mL/100 g body weight, intragastric administration is performed on the rats of the normal control group and the rats of the SHR rat model control group with an equal volume of distilled water, and administration is performed continuously for 8 weeks.
(§2) 2.2 General state: during observation, conditions such as mind, water drinking, food intake, bowel movement, hair color, body weight and range of motion of rats are observed. Irritable degrees of the rats are divided into III levels: a level I means that the rats are free of obvious response when necks of the rats are seized; a level II means that the rats scream and startle when the necks of the rats are seized; and a level III means that the rats bite or rats of same cages frequently fight when the necks of the rats are seized.
(§3) 3.1 Influence on general state of spontaneously hypertensive rats: the rats of the normal control group are normal in food intake, drinking and motion conditions, sensitive in response, healthy and glossy in hair color, good in mental state and free of any unusual response; the rats of the SHR model group gradually present that back hair is fluffy, clustered and dim, the appetite is reduced, the body weight is reduced, the mind is dispirited and irritable, and the rats are prone to the behaviors of intense resisting, attacking and so on during administration and blood pressure detection, and irritable degrees are mostly changed to a level II and a level III from a level I; and after single administration of ginkgolide B and derivatives thereof, behavioral general state observations of rats of each group are free of obvious difference from those of the model control group.

[2] = Weekly body weight of SHR rats
Description: as §1, §2, §3

[3] = tested on: spontaneously hypertensive rats (SHR); assay: Caudal artery systolic pressure of spontaneously hypertensive rats, single administration; conditions: x ± s, n = 8
Description: as §1
(§4) 2.3 Blood pressure measuring: caudal artery systolic pressure of rats is measured with a Bp-6 noninvasive blood pressure measuring system. Under the condition that the rats are calm, the systolic pressure is continuously measured for 3 times, and the average value of the measured systolic pressure is taken as a pressure measuring result. Observation indexes: (1) single-administration pressure lowering effect: blood pressure of the rats is measured before administration and blood pressure conditions are measured 30 min, 60 min, 90 min and 120 min after first administration; and (2) continuous-administration pressure lowering condition: blood pressure is separately measured 30 min after administration at 1 d, 7 d, 13 d, 19 d, 25 d, 35 d, 49 d and 56 d, the blood pressure is repeatedly measured for 3 times at a day, and the average value of obtained values is taken as a final blood pressure value.

[4] = tested on: spontaneously hypertensive rats (SHR); assay: Caudal artery systolic pressure of spontaneously hypertensive rats, 8 weeks of continuous medication; conditions: x ± s, n = 8
Description: as §1, §4

[5] = 60 mg/kg/d intragastric, week 0
[6] = 60 mg/kg/d intragastric, week 1
[7] = 60 mg/kg/d intragastric, week 2
[8] = 60 mg/kg/d intragastric, week 3
[9] = 60 mg/kg/d intragastric, week 4
[10] = 60 mg/kg/d intragastric, week 5
[11] = 60 mg/kg/d intragastric, week 6
[12] = 60 mg/kg/d intragastric, week 7
[13] = 60 mg/kg/d intragastric, week 8
[14] = 120 mg/kg/d intragastric, week 0
[15] = 120 mg/kg/d intragastric, week 1
[16] = 120 mg/kg/d intragastric, week 2
[17] = 120 mg/kg/d intragastric, week 3
[18] = 120 mg/kg/d intragastric, week 4
[19] = 120 mg/kg/d intragastric, week 5
[20] = 120 mg/kg/d intragastric, week 6
[21] = 120 mg/kg/d intragastric, week 7
[22] = 120 mg/kg/d intragastric, week 8

CC1C(=O)OC2C(O)C34C5CC(C(C)(C)C)C36C(OC(=O)C6O)OC4(C(=O)O5)C12O (stereo not shown) [GB, ginkgolide B]
Average dairy food intake [1, 5]: 18.6 g/day | Average dairy food intake [1, 6]: 20.1^▴ g/d | Average dairy food intake [1, 7]: 18.9^▴ g/d | Average dairy food intake [1, 8]: 17.7 g/day | Average dairy food intake [1, 9]: 18.6^▴ g/d | Average dairy food intake [1, 10]: 21.7^▴▴ g/d | Average dairy food intake [1, 11]: 23.5^▴▴ g/d | Average dairy food intake [1, 12]: 24.2^▴▴ g/d | Average dairy food intake [1, 13]: 25.4^▴▴ g/d | Average dairy food intake [1, 14]: 18.3 g/day | Average dairy food intake [1, 15]: 20.6^▴▴ g/d | Average dairy food intake [1, 16]: 19.5^▴ g/d | Average dairy food intake [1, 17]: 20.6^▴▴ g/d | Average dairy food intake [1, 18]: 21.4^▴▴ g/d | Average dairy food intake [1, 19]: 22.8^▴▴ g/d | Average dairy food intake [1, 20]: 24.6^▴▴ g/d | Average dairy food intake [1, 21]: 26.8^▴▴ g/d | Average dairy food intake [1, 22]: 28.2^▴▴ g/d | Body weight [2, 5]: 230.8 g | Body weight [2, 6]: 235.6 g | Body weight [2, 7]: 243.1^▴ g | Body weight [2, 8]: 250.2 g | Body weight [2, 9]: 258.9^▴ g | Body weight [2, 10]: 262.4 g | Body weight [2, 11]: 268.7^▴ g | Body weight [2, 12]: 280.6^▴▴ g | Body weight [2, 13]: 290.1^▴▴ g | Body weight [2, 14]: 231.0 g | Body weight [2, 15]: 250.3^▴▴ g | Body weight [2, 16]: 258.7^▴▴ g | Body weight [2, 17]: 263.4^▴▴ g | Body weight [2, 18]: 270.6^▴▴ g | Body weight [2, 19]: 281.5^▴▴ g | Body weight [2, 20]: 290.6^▴▴ g | Body weight [2, 21]: 306.7^▴▴ g | Body weight [2, 22]: 321.2^▴▴ g | Systolic pressure ([3]; 60 mg/kg intragastric single administration, 30 min): 160.42 ± 9.56 mmHg | Systolic pressure ([3]; 60 mg/kg intragastric single administration, 60 min): 153.15 ± 12.51 mmHg | Systolic pressure ([3]; 60 mg/kg intragastric single administration, 90 min): 155.16 ± 11.26 mmHg | Systolic pressure ([3]; 60 mg/kg intragastric single administration, 120 min): 159.17 ± 11.63 mmHg | Systolic pressure ([3]; 60 mg/kg intragastric single administration, before administration): 168.41 ± 12.30 mmHg | Systolic pressure ([3]; 120 mg/kg intragastric single administration, 30 min): 151.46 ± 16.27 mmHg | Systolic pressure ([3]; 120 mg/kg intragastric single administration, 60 min): 157.54 ± 17.95 mmHg | Systolic pressure ([3]; 120 mg/kg intragastric single administration, 90 min): 160.26 ± 16.54 mmHg | Systolic pressure ([3]; 120 mg/kg intragastric single administration, 120 min): 152.21 ± 18.27 mmHg | Systolic pressure ([3]; 120 mg/kg intragastric single administration, before administration): 167.49 ± 13.09 mmHg | Systolic pressure ([4]; 60 mg/kg/d intragastric continuous, 1 d, 30 min after administration): 155.67 ± 12.36 mmHg | Systolic pressure ([4]; 60 mg/kg/d intragastric continuous, 7 d, 30 min after administration): 153.46 ± 10.74 mmHg | Systolic pressure ([4]; 60 mg/kg/d intragastric continuous, 13 d, 30 min after administration): 156.25 ± 10.84 mmHg | Systolic pressure ([4]; 60 mg/kg/d intragastric continuous, 19 d, 30 min after administration): 150.68 ± 9.78 mmHg | Systolic pressure ([4]; 60 mg/kg/d intragastric continuous, 25 d, 30 min after administration): 155.65 ± 10.57 mmHg | Systolic pressure ([4]; 60 mg/kg/d intragastric continuous, 35 d, 30 min after administration): 154.25 ± 10.74 mmHg | Systolic pressure ([4]; 60 mg/kg/d intragastric continuous, 49 d, 30 min after administration): 150.56 ± 10.42 mmHg | Systolic pressure ([4]; 60 mg/kg/d intragastric continuous, 56 d, 30 min after administration): 153.85 ± 9.24 mmHg | Systolic pressure ([4]; 60 mg/kg/d intragastric continuous, before administration): 168.41 ± 12.30 mmHg | Systolic pressure ([4]; 120 mg/kg/d intragastric continuous, 1 d, 30 min after administration): 150.63 ± 10.25 mmHg | Systolic pressure ([4]; 120 mg/kg/d intragastric continuous, 7 d, 30 min after administration): 148.54 ± 9.27 mmHg | Systolic pressure ([4]; 120 mg/kg/d intragastric continuous, 13 d, 30 min after administration): 141.74 ± 8.26 mmHg | Systolic pressure ([4]; 120 mg/kg/d intragastric continuous, 19 d, 30 min after administration): 140.95 ± 12.04 mmHg | Systolic pressure ([4]; 120 mg/kg/d intragastric continuous, 25 d, 30 min after administration): 147.46 ± 9.85 mmHg | Systolic pressure ([4]; 120 mg/kg/d intragastric continuous, 35 d, 30 min after administration): 142.33 ± 10.38 mmHg | Systolic pressure ([4]; 120 mg/kg/d intragastric continuous, 49 d, 30 min after administration): 138.79 ± 11.58 mmHg | Systolic pressure ([4]; 120 mg/kg/d intragastric continuous, 56 d, 30 min after administration): 135.28 ± 7.48 mmHg | Systolic pressure ([4]; 120 mg/kg/d intragastric continuous, before administration): 167.49 ± 13.09 mmHg
